Experimental findings from patent publication US7875587B2, “Peptide analogues of GIP for treatment of diabetes, insulin resistance and obesity” (UUTECH Limited, priority 2004, dated 2011) are described below.

No end group written: not given here.

The test system of one data set is BRIN-BD11 cells. The experiment in a line: Acute tests for insulin secretion from BRIN-BD11 cells. It is filed as cell-based. The following applies: 5.6 and 16.7 mM glucose, 10^-13 to 10^-8 M peptide. How it is done:
Culture of insulin secreting cells. BRIN-BD11 cells were cultured in sterile tissue culture flasks (Corning, Glass Works, UK) using RPMI-1640 tissue culture medium containing 10% (v/v) foetal calf serum, 1% (v/v) antibiotics (100 U/ml penicillin, 0.1 mg/ml streptomycin) and 11.1 mM glucose. The cells were maintained at 37° C. in an atmosphere of 5% CO2 and 95% air using a LEEC incubator (Laboratory Technical Engineering, Nottingham, UK).
Acute tests for insulin secretion. Before experimentation, the cells were harvested from the surface of the tissue culture flasks with the aid of trypsin/EDTA (Gibco), seeded into 24-multiwell plates (Nunc, Roskilde, Denmark) at a density of 1.5×10^5 cells per well, and allowed to attach overnight at 37° C. Acute tests for insulin release were preceded by 40 minutes pre-incubation at 37° C. in 1.0 ml Krebs Ringer bicarbonate buffer (115 mM NaCl, 4.7 mM KCl, 1.28 mM CaCl2, 1.2 mM KH2PO4, 1.2 mM MgSO4, 10 mM NaHCO3, 5 g/l bovine serum albumin, pH 7.4) supplemented with 1.1 mM glucose. Test incubations were performed (n=12) at two glucose concentrations (5.6 mM and 16.7 mM) with a range of concentrations (10^−13 to 10^−8 M) of GIP or GIP analogues. After 20 minutes incubation, the buffer was removed from each well and aliquots (200 μl) were used for measurement of insulin by radioimmunoassay.

Data set [1] addresses T1, purified porcine dipeptidylpeptidase IV (Sus scrofa, UniProt P22411).
T1 construct: purchased Sigma (Poole, Dorset, UK)
Kind of data set: DPP IV degradation studies of fatty acid derivatised GIP analogues. The format is in vitro ADME. How it is done:
DPP IV degradation studies. GIP and fatty acid derivatised GIP analogues were incubated at 37° C. with purified porcine dipeptidylpeptidase IV (5 mU in 50 mmol/l triethanolamine-HCl; pH 7.8) for 0, 2, 4, 8 and 24 hours (final peptide concentration 2 mmol/l). The reactions were subsequently terminated by addition of 10% (v/v) TFA/water and the reaction products separated using HPLC. […] HPLC peak area data were used to calculate % intact peptide remaining throughout the incubation.

For another data set, the system named is ob/ob mice. The experiment in a line: Acute metabolic and dose-response effects with glucose in 18 h fasted ob/ob mice. It is filed as in vivo, mouse. To be noted: for overall glucose excursion (glucose AUC) compared to glucose alone: 25 nmoles/kg i.p. with glucose 18 mmoles/kg, 0-60 min; for AUC glucose and insulin in dose-response study: 6.25, 12.5 and 25 nmoles/kg with glucose. How it is done:
Animals. Obese diabetic (ob/ob) mice derived from the colony maintained at Aston University, UK were used at 12-17 weeks of age. The genetic background and characteristics of the colony used have been outlined in detail elsewhere (Bailey, C. J. et al., 1982, Int. J. Obesity 6:11-21; Gault, V. A. et al., 2003, J. Endocrinol. 176: 133-141). Animals were housed in an air-conditioned room at 22±2° C. with a 12 hours light: 12 hours dark cycle. Drinking water and standard rodent maintenance diet (Trouw Nutrition, Cheshire, UK) were freely available. All test solutions were administered by i.p. injection in a final volume of 5 ml/kg bw. Blood was collected from the cut tip of the tail vein of conscious mice into chilled fluoride/heparin microcentrifuge tubes immediately prior to injection and at the times indicated in the Figures. Plasma was separated using a Beckman microcentrifuge (Beckman Instruments, UK) at 13,000 g for 30 second and stored at −20° C. prior to glucose and insulin determinations. All animal experiments were carried out in accordance with the UK Animals (Scientific Procedures) Act 1986.
Metabolic and dose-response effects of GIP and N-AcGIP(LysPAL) analogues (at 6.25-25 nmoles/kg bw) following glucose administration (18 mmoles/kg bw) were examined in mice fasted for 18 hours. […] Food intake and body weight were recorded daily. Plasma glucose and insulin concentrations were monitored at 2-6 day intervals. At 14 days, groups of animals were used to evaluate intraperitoneal glucose tolerance (18 mmoles/kg) and insulin sensitivity (50 U/kg). In a separate series, two experimental protocols were employed to examine the possibility of GIP receptor desensitization after 14 days treatment. […] At the end of the 14-day treatment period, pancreatic tissues were excised for measurement of insulin following extraction with 5 ml/g ice-cold acid ethanol (75% ethanol, […], 1.5% HCl). Whole blood was taken for determination of glycated hemoglobin.
Biochemical analyses. Plasma glucose was assayed by an automated glucose oxidase procedure (Stevens, J. F., 1971, Clin. Chem. Acta 32:199-201) using a Beckman Glucose Analyser II (Beckman, Galway, Ireland). Plasma insulin was determined by dextran-charcoal RIA as described previously (Flatt, P. R. et al., 1981, Diabetologia 20: 573-577). Glycated hemoglobin was determined using cation-exchange columns (Sigma, Poole, Dorset, UK) with measurement of absorbance (415 nm) in wash and eluting buffers using a VersaMax microplate spectrophotometer (Molecular Devices, Wokingham, Berkshire, UK).
Statistics. Results are expressed as mean±SEM. Data were compared using the unpaired Student's t-test. Where appropriate, data were compared using repeated measures ANOVA or one-way ANOVA, followed by the Student-Newman-Keuls post hoc test. Incremental areas under plasma glucose and insulin curves (AUC) were calculated using a computer-generated program employing the trapezoidal rule (Burington, R. S., 1973, Handbook of Mathematical Tables and Formulae, McGraw-Hill, New York) with baseline subtraction.

T1 sequence (P22411 whole entry): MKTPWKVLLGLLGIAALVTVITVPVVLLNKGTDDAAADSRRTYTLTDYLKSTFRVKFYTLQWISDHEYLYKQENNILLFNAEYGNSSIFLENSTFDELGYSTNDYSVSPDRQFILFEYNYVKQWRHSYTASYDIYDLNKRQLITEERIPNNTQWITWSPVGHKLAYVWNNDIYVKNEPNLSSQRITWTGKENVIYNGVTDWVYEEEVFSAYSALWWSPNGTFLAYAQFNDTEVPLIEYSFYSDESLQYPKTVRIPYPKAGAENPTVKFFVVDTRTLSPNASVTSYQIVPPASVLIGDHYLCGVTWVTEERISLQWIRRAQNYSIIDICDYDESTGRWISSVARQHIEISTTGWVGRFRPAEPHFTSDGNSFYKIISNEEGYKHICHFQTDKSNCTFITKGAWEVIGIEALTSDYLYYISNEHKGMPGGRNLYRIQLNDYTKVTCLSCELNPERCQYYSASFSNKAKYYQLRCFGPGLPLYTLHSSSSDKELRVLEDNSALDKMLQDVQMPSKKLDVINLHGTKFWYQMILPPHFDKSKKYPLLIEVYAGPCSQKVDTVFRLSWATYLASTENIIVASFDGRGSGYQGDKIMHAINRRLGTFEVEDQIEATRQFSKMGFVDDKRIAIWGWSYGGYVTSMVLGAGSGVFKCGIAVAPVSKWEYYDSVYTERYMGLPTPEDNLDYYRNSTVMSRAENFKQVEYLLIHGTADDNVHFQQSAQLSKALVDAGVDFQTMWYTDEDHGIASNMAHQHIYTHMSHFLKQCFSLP

Regarding `CC[C@H](C)[C@H](NC(=O)[C@H](CO)NC(=O)[C@H](Cc1ccc(O)cc1)NC(=O)[C@H](CC(=O)O)NC(=O)[C@H](CO)NC(=O)[C@@H](NC(=O)[C@H](Cc1ccccc1)NC(=O)[C@@H](NC(=O)CNC(=O)[C@H](CCC(=O)O)NC(=O)[C@H](C)NC(=O)[C@@H](N)Cc1ccc(O)cc1)[C@@H](C)O)[C@@H](C)CC)C(=O)N[C@@H](C)C(=O)N[C@@H](CCSC)C(=O)N[C@@H](CC(=O)O)C(=O)N[C@@H](CCCCN)C(=O)N[C@H](C(=O)N[C@@H](Cc1c[nH]cn1)C(=O)N[C@@H](CCC(N)=O)C(=O)N[C@@H](CCC(N)=O)C(=O)N[C@@H](CC(=O)O)C(=O)N[C@@H](Cc1ccccc1)C(=O)N[C@H](C(=O)N[C@@H](CC(N)=O)C(=O)N[C@@H](Cc1c[nH]c2ccccc12)C(=O)N[C@@H](CC(C)C)C(=O)N[C@@H](CC(C)C)C(=O)N[C@@H](C)C(=O)N[C@@H](CCC(N)=O)C(=O)N[C@@H](CCCCN)C(=O)NCC(=O)N[C@@H](CCCCN)C(=O)N[C@@H](CCCCN)C(=O)N[C@@H](CC(N)=O)C(=O)N[C@@H](CC(=O)O)C(=O)N[C@@H](Cc1c[nH]c2ccccc12)C(=O)N[C@@H](CCCCN)C(=O)N[C@@H](Cc1c[nH]cn1)C(=O)N[C@@H](CC(N)=O)C(=O)N[C@H](C(=O)N[C@H](C(=O)N[C@@H](CCC(N)=O)C(=O)O)[C@@H](C)O)[C@@H](C)CC)C(C)C)[C@@H](C)CC` [GIP 1–42, reference compound], the “insulin secretion from BRIN-BD11 cells” value in the data set on BRIN-BD11 cells was “prominent and dose-related stimulation of insulin secretion”. Also, the “% Intact peptide remaining after time (hours)” value (shortened to “% Intact peptide remaining”) is given as 100% in data set [1] (pig, 0 h); 52±3% in data set [1] (pig, 2 h); “entirely degraded” in data set [1] (pig, 8 h). Moreover, in the data set on ob/ob mice (25 nmoles/kg i.p. with glucose), the “overall insulinotropic response compared with glucose alone” value is “significantly elevated the overall insulinotropic response”. Moreover, the “overall glucose excursion (glucose AUC) compared to glucose alone” value in the data set with ob/ob mice is on record as “failed to reach significance”. Also, the “AUC glucose and insulin in dose-response study” value in the data set on ob/ob mice is “did not significantly affect”.

As to `CCCCCCCCCCCCCCCC(=O)NCCCC[C@H](NC(=O)[C@H](Cc1c[nH]c2ccccc12)NC(=O)[C@H](CC(=O)O)NC(=O)[C@H](CC(N)=O)NC(=O)[C@H](CCCCN)NC(=O)[C@H](CCCCN)NC(=O)CNC(=O)[C@H](CCCCN)NC(=O)[C@H](CCC(N)=O)NC(=O)[C@H](C)NC(=O)[C@H](CC(C)C)NC(=O)[C@H](CC(C)C)NC(=O)[C@H](Cc1c[nH]c2ccccc12)NC(=O)[C@H](CC(N)=O)NC(=O)[C@@H](NC(=O)[C@H](Cc1ccccc1)NC(=O)[C@H](CC(=O)O)NC(=O)[C@H](CCC(N)=O)NC(=O)[C@H](CCC(N)=O)NC(=O)[C@H](Cc1c[nH]cn1)NC(=O)[C@@H](NC(=O)[C@H](CCCCN)NC(=O)[C@H](CC(=O)O)NC(=O)[C@H](CCSC)NC(=O)[C@H](C)NC(=O)[C@@H](NC(=O)[C@H](CO)NC(=O)[C@H](Cc1ccc(O)cc1)NC(=O)[C@H](CC(=O)O)NC(=O)[C@H](CO)NC(=O)[C@@H](NC(=O)[C@H](Cc1ccccc1)NC(=O)[C@@H](NC(=O)CNC(=O)[C@H](CCC(=O)O)NC(=O)[C@H](C)NC(=O)[C@H](Cc1ccc(O)cc1)NC(C)=O)[C@@H](C)O)[C@@H](C)CC)[C@@H](C)CC)[C@@H](C)CC)C(C)C)C(=O)N[C@@H](Cc1c[nH]cn1)C(=O)N[C@@H](CC(N)=O)C(=O)N[C@H](C(=O)N[C@H](C(=O)N[C@@H](CCC(N)=O)C(=O)O)[C@@H](C)O)[C@@H](C)CC` [N-AcGIP(LysPAL^37)], the “% Intact peptide remaining” value in data set [1] (incubation with DPP IV, 0 h) worked out at 100%. Further, the “% Intact peptide remaining” value in data set [1] (incubation with DPP IV, 24 h) is listed as “remained completely intact”. Moreover, in the data set with ob/ob mice (6.25 nmoles/kg with glucose), the “antihyperglycaemic effect compared to glucose alone” value is recorded as “highly significant antihyperglycaemic properties” and the “insulin response (AUC) compared to glucose alone” value is reported as 2.0 fold. Also, in the data set with ob/ob mice (25 nmoles/kg i.p. with glucose), the “enhancement of overall glucose-mediated insulin release (AUC) compared to native GIP” value is listed as 2.3 fold, the “overall glucose excursion compared to native GIP” value is on record as “decreased the overall glucose excursion” and the “potency at stimulating insulin secretion relative to N-AcGIP(LysPAL^16)” value is reported as 1.5 fold. Moreover, in the data set on ob/ob mice, the “overall glucose excursion (glucose AUC) compared to glucose alone” value is “significantly lowered glucose AUC”; the “AUC glucose and insulin in dose-response study” value is “prominent dose-dependent antihyperglycaemic and insulinotropic actions at all doses administered”.

Consider “YAPGTFISDYSIAMDKIHQQDFVNWLLAQKGKKNDWKHNITQ [(Pro^3)GIP]”, for which the “insulin secretion from BRIN-BD11 cells” value in the data set on BRIN-BD11 cells was “least potent analogues in terms of insulin release”.
